We go through 17 compounds from ChEMBL document CHEMBL1144741, “Review of cytotoxic cephalostatins and ritterazines: isolation and synthesis” (2008).

What all share (format): functional
The test system of test [1] is RXF 393. Description: Antitumor activity against human RXF393 cells.
The subject of test [2] is DMS-273. Description: Antitumor activity against human DMS273 cells.
In test [3] the test system is HOP-62. In words: Antitumor activity against human HOP62 cells.
Test [4] concerns U-251. In words: Antitumor activity against human U251 cells.
The test system of test [5] is SF-295. In words: Antitumor activity against human SF295 cells.
Test [6] has as its system HL-60. Description: Antitumor activity against human HL60 cells.
Test [7] is described as follows: Antitumor activity against human […] cells.
For test [8], the system named is P388. In words: Antitumor activity against mouse P388 cells. To be noted: for EC50: read-out: ED50 (the source's name).
Test [9] deals with CCRF-CEM. In words: Antitumor activity against human CCRF-CEM cells.

`C[C@@H]1[C@]2(O[C@H]3C=C4[C@@H]5CC[C@H]6Cc7nc8c(nc7C[C@]6(C)[C@H]5C[C@@H](O)[C@]4(C)[C@]31O)C[C@@H]1CC[C@H]3C4=C[C@@H]5O[C@]6(CC[C@](C)(O)CO6)C[C@]5(O)[C@@]4(C)[C@H](O)C[C@@H]3[C@@]1(C)C8)O[C@](C)(CO)C[C@H]2O` [CEPHALOSTATIN 7]: the concentration for 50% growth inhibition (GI50) in test [1], in [2], in test [3], in test [4], in test [5] and in test [6] was below 0.1 nM in each case. Further, the GI50 in [7], in test [8] and in test [9] was below 0.1 nM in each case.
In the case of `C[C@@H]1C[C@]2(O[C@H]3C=C4[C@@H]5CC[C@H]6Cc7nc8c(nc7C[C@]6(C)[C@H]5C[C@@H](O)[C@]4(CO)[C@H]3[C@@H]2C)C[C@@H]2CC[C@H]3C4=C[C@@H]5O[C@]6(O[C@](C)(CO)C[C@H]6O)[C@@H](C)[C@]5(O)[C@@]4(C)[C@H](O)C[C@@H]3[C@@]2(C)C8)OC1(C)C` [CEPHALOSTATIN 8], the GI50 in [1], in test [2], in test [3], in test [4], in [5] and in [6] was below 0.1 nM in each case. Further, the GI50 in test [7], in test [8] and in [9] was below 0.1 nM in each case.
As for `CO[C@H]1c2nc3c(nc2C[C@@H]2CC[C@H]4C5=C[C@@H]6O[C@]7(O[C@](C)(CO)C[C@H]7O)[C@@H](C)[C@]6(O)[C@@]5(C)[C@H](O)C[C@@H]4[C@]21C)C[C@@]1(C)[C@@H](CC[C@H]2C4=CC[C@@H]5[C@H](C)[C@@]6(OC[C@]45C(=O)C[C@@]21O)OC(C)(C)C[C@H]6O)C3` [CEPHALOSTATIN 10], in test [8], the EC50 was determined as 3.2 nM.
As for `C[C@H]1[C@H]2[C@H](C[C@@H]3[C@@H]4CC[C@H]5Cc6nc7c(nc6C[C@]5(C)[C@H]4C[C@@H](O)[C@]23C)C[C@@H]2CC[C@@H]3[C@@H](CC(=O)[C@]34C[C@@H]3O[C@@]5(CCC(C)(C)O5)[C@@H](C)[C@@H]3[C@]4(C)O)[C@@]2(C)C7)O[C@@]12CCC(C)(C)O2` [RITTERAZINE P], in test [8], the EC50 was determined as 819 nM.
With `C[C@@H]1[C@@]2(CC[C@](C)(O)CO2)O[C@H]2C=C3[C@@H]4CC[C@H]5Cc6nc7c(nc6C[C@]5(C)[C@H]4C[C@@H](O)[C@]3(C)[C@]21O)C[C@@H]1CC[C@H]2C3=C[C@@H]4O[C@@]5(CC[C@](C)(O)CO5)[C@@H](C)[C@@H]4[C@@]3(C)[C@H](O)C[C@@H]2[C@@]1(C)C7` [RITTERAZINE M], the EC50 in test [8] amounted to 16.7 nM.
On the same count and under the same terms, with `C[C@@H]1[C@H]2CC=C3[C@H]4CC[C@H]5Cc6nc7c(nc6C[C@]5(C)[C@@]4(O)CC(=O)[C@@]32CO[C@]12OC(C)(C)C[C@H]2O)C[C@@H]1CC[C@H]2C3=C[C@@H]4O[C@]5(O[C@](C)(CO)C[C@H]5O)[C@@H](C)[C@]4(O)[C@@]3(C)[C@H](O)C[C@@H]2[C@@]1(C)C7` [CEPHALOSTATIN 17] the figure was 4.4 nM.
Same read-out and setting: as for `C[C@@H]1[C@@]2(CC[C@](C)(O)CO2)O[C@H]2C=C3[C@@H]4[C@@H](O)C[C@H]5Cc6nc7c(nc6C[C@]5(C)[C@H]4C[C@@H](O)[C@]3(C)[C@]21O)C[C@@H]1CC[C@@H]2[C@H](CC(=O)[C@]23C[C@@H]2O[C@]4(C[C@H](C)C(C)(C)O4)[C@@H](C)[C@@H]2[C@]3(C)O)[C@@]1(C)C7` [RITTERAZINE E], the figure is 3.8 nM; as for `C[C@@H]1[C@@]2(CC[C@](C)(O)CO2)O[C@H]2C=C3[C@H]4CC[C@H]5Cc6nc7c(nc6C[C@]5(C)[C@H]4C[C@@H](O)[C@]3(C)[C@]21O)C[C@@H]1CC[C@H]2C3=C[C@@H]4O[C@]5(CC[C@@](C)(O)CO5)[C@@H](C)[C@]4(O)[C@@]3(C)[C@H](O)C[C@@H]2[C@@]1(C)C7` [RITTERAZINE K], 10.4 nM.
On the same count and under the same terms, with `C[C@@H]1[C@@]2(CC[C@](C)(O)CO2)O[C@H]2C=C3[C@@H]4[C@@H](O)C[C@H]5Cc6nc7c(nc6C[C@]5(C)[C@H]4C[C@@H](O)[C@]3(C)[C@]21O)C[C@@H]1CC[C@H]2C3=C[C@@H]4O[C@]5(CCC(C)(C)O5)C[C@@H]4[C@@]3(C)[C@H](O)C[C@@H]2[C@@]1(C)C7` [RITTERAZINE G] the figure was 0.81 nM; with `C[C@H]1[C@H]2[C@H](C[C@@H]3[C@@H]4CC[C@H]5Cc6nc7c(nc6C[C@]5(C)[C@@H]4C[C@@H](O)[C@]23C)C[C@@H]2CC[C@H]3[C@H]4C[C@@H]5O[C@@]6(CCC(C)(C)O6)[C@@H](C)[C@@H]5[C@@]4(C)[C@H](O)C[C@@H]3[C@@]2(C)C7)O[C@@]12CCC(C)(C)O2` [RITTERAZINE R], 2460 nM; with `C[C@H]1[C@H]2[C@H](C=C3[C@@H]4CC[C@H]5Cc6nc7c(nc6C[C@]5(C)[C@@H]4C[C@@H](O)[C@@]32C)C[C@@H]2CC[C@@H]3[C@H](CC(=O)[C@]34C[C@@H]3O[C@@]5(CCC(C)(C)O5)[C@@H](C)[C@@H]3[C@]4(C)O)[C@@]2(C)C7)O[C@]12CC[C@](C)(O)CO2` [RITTERAZINE T], 522 nM.
For the compound `C[C@@H]1[C@H]2CC=C3[C@@H]4CC[C@H]5Cc6nc7c(nc6C[C@]5(C)[C@H]4CC(=O)[C@@]32COC1(O)[C@H](O)CC(C)(C)O)C[C@@H]1CC[C@H]2C3=C[C@@H]4O[C@]5(O[C@](C)(CO)C[C@H]5O)[C@@H](C)[C@]4(O)[C@@]3(C)[C@H](O)C[C@@H]2[C@@]1(C)C7` (stereo partly specified) [CEPHALOSTATIN 9], the 50% growth inhibitory concentration (GI50) in test [1], in [2], in [3], in test [4], in test [5] and in [6] was below 0.1 nM each time. Besides, the 50% growth inhibitory concentration (GI50) in test [7], in test [8] and in [9] was below 0.1 nM each time.
Consider `C[C@H]1[C@H]2[C@H](C=C3[C@@H]4CC[C@H]5Cc6nc7c(nc6C[C@]5(C)[C@@H]4C[C@@H](O)[C@@]32C)C[C@@H]2CC[C@@H]3[C@H](CC(=O)[C@]34C[C@@H]3O[C@@]5(CCC(C)(C)O5)[C@@H](C)[C@@H]3[C@]4(C)O)[C@@]2(C)C7)O[C@]12C[C@](C)(CO)CO2` [RITTERAZINE W], for which the EC50 in test [8] stood at 3630 nM.
The same measure, in the same setting: with `C[C@H]1[C@@H](O)C2(Oc3cc4c(c5c3[C@H](C[C@H]5O)[C@@H]2C)CC[C@H]2Cc3nc5c(nc3C[C@]42C)C[C@@H]2CC[C@H]3C4=C[C@@H]6O[C@@]7(C[C@]6(O)[C@@]4(C)[C@H](O)C[C@@H]3[C@@]2(C)C5)O[C@](C)(CO)C[C@H]7O)OC1(C)C` (stereo partly specified) [CEPHALOSTATIN 5] the figure was 42.5 nM; with `C[C@H]1[C@H]2[C@H](C[C@@H]3[C@@H]4CC[C@H]5Cc6nc7c(nc6C[C@]5(C)[C@@H]4C[C@@H](O)[C@]23C)C[C@@H]2CC[C@H]3[C@H]4C[C@@H]5O[C@@]6(CCC(C)(C)O6)[C@@H](C)[C@@H]5[C@@]4(C)[C@H](O)C[C@@H]3[C@@]2(C)C7)O[C@]12CCC(C)(C)O2` [RITTERAZINE S], 539 nM; with `C[C@@H]1[C@@]2(CC[C@](C)(O)CO2)O[C@H]2C=C3[C@@H]4[C@@H](O)C[C@H]5Cc6nc7c(nc6C[C@]5(C)[C@H]4C[C@@H](O)[C@]3(C)[C@]21O)C[C@@H]1CC[C@@H]2[C@H](CC(=O)[C@]23C[C@@H]2O[C@@]4(CCC(C)(C)O4)[C@@H](C)[C@@H]2[C@]3(C)O)[C@@]1(C)C7` [RITTERAZINE A], 14.2 nM.
Same read-out and setting: with `CO[C@H]1c2nc3c(nc2C[C@@H]2CC[C@H]4C5=CC[C@@H]6[C@H](C)[C@@]7(OC[C@]56C(=O)C[C@@H]4[C@]21C)OC(C)(C)C[C@H]7O)C[C@@]1(C)[C@@H](CC[C@H]2C4=C[C@@H]5O[C@]6(O[C@](C)(CO)C[C@H]6O)[C@@H](C)[C@]5(O)[C@@]4(C)[C@H](O)C[C@@H]21)C3` [CEPHALOSTATIN 19] the figure was 7.9 nM.

What is called GI50 is the concentration giving 50% growth inhibition. Low readings indicate more potent growth inhibition, high ones less potent growth inhibition.
